We go through 2 compounds from patent US9288989B2, “Synergistic weed control from applications of penoxsulam and acetochlor” (Dow AgroSciences LLC, priority 2013, dated 2016).

The test system of one data set is AMARE. As to the kind of experiment: Pre-emergence field trial, weed control, AMARE. Type of data set: in vivo, Amaranthus retroflexus. To be noted: 55 days. The protocol: (§1) The (a) penoxsulam or an agriculturally acceptable salt thereof is mixed with or applied in combination with (b) acetochlor or an agriculturally acceptable salt thereof in an amount sufficient to induce a synergistic herbicidal effect. […] As described in the Herbicide Handbook of the Weed Science Society of America, Ninth Edition, 2007, p. […] In some embodiments, the damage or injury to the undesired vegetation caused by the compositions and methods disclosed herein is evaluated using a scale from 0% to 100%, when compared with the untreated control vegetation, wherein 0% indicates no damage to the undesired vegetation and 100% indicates complete destruction of the undesired vegetation.
(§2) In Colby's equation, the value E corresponds to the effect (plant damage or injury) that is to be expected if the activity of the individual compounds is additive. If the observed effect is higher than the value E calculated according to the Colby equation, then a synergistic effect is present according to the Colby equation. […]
(§3) Colby's equation was used to determine the herbicidal effects expected from the mixtures, as described above. The results were measured at the evaluation intervals provided in Table 1 after the first application of the compositions. […]

The next data set has as its system CHEAL. As to the kind of experiment: Pre-emergence field trial, weed control, CHEAL. The format is in vivo, Chenopodium album L.
Source text: (§4) The (a) penoxsulam or an agriculturally acceptable salt thereof is mixed with or applied in combination with (b) acetochlor or an agriculturally acceptable salt thereof in an amount sufficient to induce a synergistic herbicidal effect. […] As described in the Herbicide Handbook of the Weed Science Society of America, Ninth Edition, 2007, p. 429, “‘synergism’ [is] an interaction of two or more factors such that the effect when combined is greater than the predicted effect based on the response to each factor applied separately.” Synergistic in the herbicide context can mean that the use of (a) and (b) as defined above results in an increased weed control effect compared to the weed control effects that are possible with the use of (a) or (b) alone. In some embodiments, the damage or injury to the undesired vegetation caused by the compositions and methods disclosed herein is evaluated using a scale from 0% to 100%, when compared with the untreated control vegetation, wherein 0% indicates no damage to the undesired vegetation and 100% indicates complete destruction of the undesired vegetation.
(§5) In Colby's equation, the value E corresponds to the effect (plant damage or injury) that is to be expected if the activity of the individual compounds is additive. If the observed effect is higher than the value E calculated according to the Colby equation, then a synergistic effect is present according to the Colby equation.
(§6) Field trials were conducted with applications made in the area of naturally occurring weed populations in multiple countries. The soil or water was treated prior to the emergence of target plants. All treatments were applied using a randomized complete block trial design, with 3-5 replications per treatment.
(§7) Treatments consisted of penoxsulam and acetochlor applied alone and in combination. Spray solutions were prepared using an appropriate amount of dilution to treat the area of the plots based on use rates and water volumes necessary based on a per hectare basis. Spray solutions were prepared and applied with the specified active ingredients in single and two-way combinations to be able to perform Colby synergy and safening calculations. Formulated products were applied to the soil with a backpack sprayer equipped with flat fan nozzles calibrated to deliver from 200 to 300 L/ha at a normal spray height above the soil, at spray pressures ranging from 200 to 400 kilopascals (kPa). […]
as §3

The next data set concerns VIOAR. As to the kind of experiment: Pre-emergence field trial, weed control, VIOAR. The format is in vivo, Viola arvensis Murr. To be noted: 61 days. The protocol: as §1, §2, §3
The test system of a further data set is GALAP. As to the kind of experiment: Pre-emergence field trial, weed control, GALAP. The format is in vivo, Galium aparine L.
Source text: as §4, §5, §6, §7, §3

In another data set the test system is SOLNI. As to the kind of experiment: Pre-emergence field trial, weed control, SOLNI. The format is in vivo, Solanum nigrum.
Source text: as §4, §5, §6, §7, §3

The test system of a further data set is ECHCO. As to the kind of experiment: Pre-emergence field trial, weed control, ECHCO. Type of data set: in vivo, Echinochloa colonum (L.) Link.
Source text: as §4, §5, §6
(§8) Treatments consisted of penoxsulam and acetochlor applied alone and in combination. Spray solutions were prepared using an appropriate amount of dilution to treat the area of the plots based on use rates and water volumes necessary based on a per hectare basis. Spray solutions were prepared and applied with the specified active ingredients in single and two-way combinations to be able to perform Colby synergy and safening calculations. Formulated products were applied to the soil with a backpack sprayer equipped with flat fan nozzles calibrated to deliver from 200 to 300 L/ha at a normal spray height above the soil, at spray pressures ranging from 200 to 400 kilopascals (kPa). Formulated products were applied into flooded rice paddy by calculating the area to be treated, calculating the amount of active ingredient necessary to treat the area at the specified rates, then mixing the treatments in water to apply 8 L/ha of water to the plots.
(§9) Colby's equation was used to determine the herbicidal effects expected from the mixtures, as described above. The results were measured at the evaluation intervals provided in Table 1 after the first application of the compositions. […] The herbicide tank-mix combinations tested, application rates and ratios employed, plant species tested, and results are given below.

The test system of the next data set is CYPRO. As to the kind of experiment: Pre-emergence field trial, weed control, CYPRO. Type of data set: in vivo, Cyperus rotundus L. Conditions: 35 days. Here is the method:
as §1, §2, §3

The next data set concerns TRBSS. As to the kind of experiment: Pre-emergence field trial, weed control, TRBSS. Type of data set: in vivo, species of the genus Tribulus.
Source text: as §4, §5, §6, §8, §9

A further data set has as its system POLPE. As to the kind of experiment: Pre-emergence field trial, weed control, POLPE. The format is in vivo, Polygonum persicaria L. To be noted: 14 days. Here is the method:
as §1, §2, §3

The next data set has as its system POLCO. As to the kind of experiment: Pre-emergence field trial, weed control, POLCO. The format is in vivo, Polygonum convolvulus L.
Source text: as §4, §5, §6, §8, §9

A further data set has as its system POLLA. As to the kind of experiment: Pre-emergence field trial, weed control, POLLA. Type of data set: in vivo, Polygonum lapathifolium L.
Source text: as §4, §5, §6, §8, §9

A further data set relates to corn (ZEAMX). As to the kind of experiment: Pre-emergence field trial, crop injury, corn. To be noted: in vivo. Here is the method: as §1, §2
Colby's equation was used to determine the herbicidal effects expected from the mixtures, as described above. The results were measured at the evaluation intervals provided in Table 2 after the first application of the compositions. […]

Setting [1] is: 64 days, acetochlor 1900 g ai/ha.
Setting [2] is: 28 days, acetochlor 2300 g ai/ha.

Molecules are shown by their SMILES. Values joined by “and” are separate entries in the source; they are usually repeats but may differ in a detail not shown here. Equal values may be shown once.

Consider `CCOCN(C(=O)CCl)c1c(C)cccc1CC` [Acetochlor, 2-chloro-N-(ethoxymethyl)-N-(2-ethyl-6-methylphenyl)acetamide], for which the “Mean % weed control” value with AMARE (acetochlor 2000 g ai/ha) is recorded as 0%; in the data set with CHEAL (34 days, acetochlor 1400 g ai/ha) it was 3.33%; in the data set on CHEAL (61 days, acetochlor 1400 g ai/ha) it was 36.67%; with VIOAR (acetochlor 1400 g ai/ha), 0%; in the data set on GALAP (38 days, acetochlor 1900 g ai/ha), 6.67%; in the data set on GALAP (setting [1]), 10%. The “Mean % weed control” value in the data set on SOLNI (setting [1]) is 13.33%; in the data set with SOLNI (92 days, acetochlor 1900 g ai/ha) it was 3.33%; in the data set with ECHCO (20 days, acetochlor 15 g ai/ha), 22.5%; in the data set with ECHCO (35 days, acetochlor 15 g ai/ha), 15%; with CYPRO (acetochlor 15 g ai/ha), 4.25%; with TRBSS (35 days, acetochlor 1800 g ai/ha) it was 78%. Moreover, the “Mean % weed control” value in the data set on TRBSS (49 days, acetochlor 1800 g ai/ha) was 63%; in the data set on POLPE (acetochlor 1400 g ai/ha), 36.67%; with POLCO (setting [2]), 5% and 12.5%; in the data set on POLLA (14 days, acetochlor 2300 g ai/ha) it was 20%; in the data set on POLLA (setting [2]) it was 10% and 7.5%; in the data set on POLLA (98 days, acetochlor 2300 g ai/ha), 12.5%. In the data set on corn (ZEAMX), the “Mean % crop injury” value is 0%.
Regarding `COc1cnc(OC)n2nc(NS(=O)(=O)c3c(OCC(F)F)cccc3C(F)(F)F)nc12` [Penoxsulam], the “Mean % weed control” value in the data set with AMARE (penoxsulam 12 g ai/ha) was determined as 30%; in the data set with CHEAL (34 days, penoxsulam 20 g ai/ha), 56.67%; in the data set on CHEAL (61 days, penoxsulam 20 g ai/ha) it was 50%; in the data set on VIOAR (penoxsulam 20 g ai/ha), 0%; with GALAP (38 days, penoxsulam 20 g ai/ha) it was 40%; in the data set with GALAP (64 days, penoxsulam 20 g ai/ha) it was 60%. The “Mean % weed control” value in the data set on SOLNI (64 days, penoxsulam 20 g ai/ha) is 40%; in the data set on SOLNI (92 days, penoxsulam 20 g ai/ha), 30%; in the data set with ECHCO (20 days, penoxsulam 15 g ai/ha), 38.75%; in the data set on ECHCO (20 days, penoxsulam 20 g ai/ha), 50%; in the data set on ECHCO (35 days, penoxsulam 15 g ai/ha), 55%; with CYPRO (penoxsulam 20 g ai/ha) it was 39.38%. Further, the “Mean % weed control” value in the data set with TRBSS (35 days, penoxsulam 5 g ai/ha) came out at 32%; with TRBSS (35 days, penoxsulam 10 g ai/ha), 38.5%; in the data set with TRBSS (49 days, penoxsulam 5 g ai/ha) it was 13%; with TRBSS (49 days, penoxsulam 10 g ai/ha), 32%; with POLPE (penoxsulam 20 g ai/ha) it was 80%; with POLCO (14 days, penoxsulam 15 g ai/ha), 85%. In addition, the “Mean % weed control” value is on record as 87.5% in the data set on POLCO (14 days, penoxsulam 20 g ai/ha); 65% with POLCO (28 days, penoxsulam 15 g ai/ha); 77.5% with POLCO (28 days, penoxsulam 20 g ai/ha); 85% in the data set with POLLA (14 days, penoxsulam 15 g ai/ha); 75% with POLLA (28 days, penoxsulam 15 g ai/ha); 90% with POLLA (28 days, penoxsulam 20 g ai/ha). Besides, the “Mean % weed control” value in the data set on POLLA (98 days, penoxsulam 15 g ai/ha) turned out to be 71.25%.
